Experimental data reported in the supplement of paper PMC10307832.

Assays:
Assay in all cases: relative viability (nuclei count vs DMSO), 5 days (fraction); higher = more cells survive
201T = system: 201T
Summary of the method: (§1)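 Lung cancer cell lines, seeded in 1536-well plates, were treated the following day by pin tool with a single drug or with five library-drug doses (not always all listed) in √10 steps on top of a fixed anchor-drug dose. Cells were fixed and nuclei stained in one step after 5 days, and nuclei were counted. Relative viability is the nuclei count for treated wells divided by that for vehicle wells, reported as medians of duplicate plates.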

ABC-1 = system: ABC-1
Summary of the method: as §1

BEN = system: BEN
Summary of the method: as §1

CAL-12T = system: CAL-12T
Summary of the method: as §1

COR-L 105 = system: COR-L 105
Summary of the method: as §1

COR-L23 = system: COR-L23
Summary of the method: as §1

EKVX = system: EKVX
Summary of the method: as §1

HARA = system: HARA
Summary of the method: as §1

HCC-366 = system: HCC-366
Summary of the method: as §1

LK-2 = system: LK-2
Summary of the method: as §1

LU99A = system: LU99A
Summary of the method: as §1

NCI-H1437 = system: NCI-H1437
Summary of the method: as §1

NCI-H1666 = system: NCI-H1666
Summary of the method: as §1

NCI-H2009 = system: NCI-H2009
Summary of the method: as §1

NCI-H2023 = system: NCI-H2023
Summary of the method: as §1

NCI-H2170 = system: NCI-H2170
Summary of the method: as §1

NCI-H3122 = system: NCI-H3122
Summary of the method: as §1

NCI-H441 = system: NCI-H441
Summary of the method: as §1

NCI-H661 = system: NCI-H661
Summary of the method: as §1

NCI-H727 = system: NCI-H727
Summary of the method: as §1

NCI-H838 = system: NCI-H838
Summary of the method: as §1

PC-14 = system: PC-14
Summary of the method: as §1

C[C@@H]1CN(CC(=O)Nc2ccc3c(c2)Cc2cccc(-c4cc(=O)cc(N5CCOCC5)o4)c2S3)C[C@H](C)O1 + Cc1nc(NC(=O)N2CCC[C@H]2C(N)=O)sc1-c1ccnc(C(C)(C)C(F)(F)F)c1 [Alpelisib] (partner 2 µM)
relative viability (201T; first compound 0.04 µM): 1.04
relative viability (201T; first compound 0.1265 µM): 1.02
relative viability (201T; first compound 0.4 µM): 0.943
relative viability (201T; first compound 4 µM): 0.95
relative viability (ABC-1; first compound 0.1265 µM): 1.05
relative viability (ABC-1; first compound 0.4 µM): 0.872
relative viability (ABC-1; first compound 4 µM): 0.466
relative viability (BEN; first compound 0.04 µM): 1
relative viability (BEN; first compound 0.1265 µM): 0.968
relative viability (BEN; first compound 0.4 µM): 1.03
relative viability (BEN; first compound 4 µM): 1.04
relative viability (CAL-12T; first compound 0.04 µM): 1.33
relative viability (CAL-12T; first compound 0.1265 µM): 1.37
relative viability (CAL-12T; first compound 0.4 µM): 1.19
relative viability (CAL-12T; first compound 4 µM): 0.841
relative viability (COR-L 105; first compound 0.04 µM): 1.09
relative viability (COR-L 105; first compound 0.1265 µM): 0.998
relative viability (COR-L 105; first compound 0.4 µM): 1.04
relative viability (COR-L 105; first compound 4 µM): 0.896
relative viability (COR-L23; first compound 0.04 µM): 1.02
relative viability (COR-L23; first compound 0.1265 µM): 0.802
relative viability (COR-L23; first compound 0.4 µM): 0.798
relative viability (COR-L23; first compound 4 µM): 0.727
relative viability (EKVX; first compound 0.04 µM): 0.737
relative viability (EKVX; first compound 0.1265 µM): 0.818
relative viability (EKVX; first compound 0.4 µM): 0.818
relative viability (EKVX; first compound 4 µM): 0.732
relative viability (HARA; first compound 0.04 µM): 0.81
relative viability (HARA; first compound 0.1265 µM): 0.637
relative viability (HARA; first compound 0.4 µM): 0.711
relative viability (HARA; first compound 4 µM): 0.78
relative viability (HCC-366; first compound 0.04 µM): 0.379
relative viability (HCC-366; first compound 0.1265 µM): 0.414
relative viability (HCC-366; first compound 0.4 µM): 0.315
relative viability (HCC-366; first compound 4 µM): 0.368
relative viability (LK-2; first compound 0.1265 µM): 1.11
relative viability (LK-2; first compound 0.4 µM): 1.18
relative viability (LK-2; first compound 4 µM): 1.28
relative viability (LU99A; first compound 0.04 µM): 0.475
relative viability (LU99A; first compound 0.1265 µM): 0.532
relative viability (LU99A; first compound 0.4 µM): 0.567
relative viability (LU99A; first compound 4 µM): 0.566
relative viability (NCI-H1437; first compound 0.04 µM): 1.04
relative viability (NCI-H1437; first compound 0.1265 µM): 1.01
relative viability (NCI-H1437; first compound 0.4 µM): 0.813
relative viability (NCI-H1437; first compound 4 µM): 0.797
relative viability (NCI-H1666; first compound 0.04 µM): 1.17
relative viability (NCI-H1666; first compound 0.1265 µM): 1.12
relative viability (NCI-H1666; first compound 0.4 µM): 0.964
relative viability (NCI-H1666; first compound 4 µM): 0.654
relative viability (NCI-H2009; first compound 0.04 µM): 1.23
relative viability (NCI-H2009; first compound 0.1265 µM): 1.09
relative viability (NCI-H2009; first compound 0.4 µM): 1.09
relative viability (NCI-H2009; first compound 4 µM): 0.974
relative viability (NCI-H2023; first compound 0.04 µM): 0.69
relative viability (NCI-H2023; first compound 0.1265 µM): 0.579
relative viability (NCI-H2023; first compound 0.4 µM): 0.407
relative viability (NCI-H2023; first compound 4 µM): 0.473
relative viability (NCI-H2170; first compound 0.1265 µM): 0.761
relative viability (NCI-H2170; first compound 0.4 µM): 0.727
relative viability (NCI-H2170; first compound 4 µM): 0.751
relative viability (NCI-H3122; first compound 0.04 µM): 0.861
relative viability (NCI-H3122; first compound 0.1265 µM): 0.682
relative viability (NCI-H3122; first compound 0.4 µM): 0.629
relative viability (NCI-H3122; first compound 4 µM): 0.699
relative viability (NCI-H441; first compound 0.04 µM): 0.942
relative viability (NCI-H441; first compound 0.4 µM): 0.675
relative viability (NCI-H441; first compound 4 µM): 0.584
relative viability (NCI-H661; first compound 0.1265 µM): 0.741
relative viability (NCI-H661; first compound 0.4 µM): 0.526
relative viability (NCI-H661; first compound 4 µM): 0.489
relative viability (NCI-H727; first compound 0.04 µM): 0.685
relative viability (NCI-H727; first compound 0.1265 µM): 0.612
relative viability (NCI-H727; first compound 0.4 µM): 0.502
relative viability (NCI-H727; first compound 4 µM): 0.479
relative viability (NCI-H838; first compound 0.04 µM): 0.971
relative viability (NCI-H838; first compound 0.1265 µM): 0.913
relative viability (NCI-H838; first compound 0.4 µM): 0.906
relative viability (NCI-H838; first compound 4 µM): 0.784
relative viability (PC-14; first compound 0.04 µM): 0.961
relative viability (PC-14; first compound 0.1265 µM): 0.986
relative viability (PC-14; first compound 0.4 µM): 0.9
relative viability (PC-14; first compound 4 µM): 0.855

CC(C)Oc1cc(Nc2nc(N[C@@H](C)c3ccc(F)cn3)ncc2Cl)n[nH]1 [AZ23] + C[C@]1(O)C[C@@H](c2nc(-c3ccc4ccc(-c5ccccc5)nc4c3)c3c(N)nccn32)C1 [Linsitinib] (partner 1 µM)
relative viability (201T; first compound 0.01 µM): 1.01
relative viability (201T; first compound 0.03162 µM): 1.11
relative viability (201T; first compound 0.3162 µM): 0.996
relative viability (ABC-1; first compound 0.01 µM): 0.573
relative viability (ABC-1; first compound 0.03162 µM): 0.916
relative viability (ABC-1; first compound 0.3162 µM): 0.866
relative viability (BEN; first compound 0.01 µM): 1
relative viability (BEN; first compound 0.03162 µM): 0.966
relative viability (BEN; first compound 0.3162 µM): 0.977
relative viability (CAL-12T; first compound 0.01 µM): 0.551
relative viability (CAL-12T; first compound 0.03162 µM): 0.724
relative viability (CAL-12T; first compound 0.3162 µM): 0.861
relative viability (COR-L 105; first compound 0.01 µM): 0.664
relative viability (COR-L 105; first compound 0.03162 µM): 1.14
relative viability (COR-L 105; first compound 0.3162 µM): 0.808
relative viability (COR-L23; first compound 0.01 µM): 0.948
relative viability (COR-L23; first compound 0.03162 µM): 1.11
relative viability (COR-L23; first compound 0.3162 µM): 0.878
relative viability (EKVX; first compound 0.01 µM): 1.01
relative viability (EKVX; first compound 0.03162 µM): 1.22
relative viability (EKVX; first compound 0.3162 µM): 0.969
relative viability (HARA; first compound 0.01 µM): 0.977
relative viability (HARA; first compound 0.03162 µM): 1.04
relative viability (HARA; first compound 0.3162 µM): 0.854
relative viability (HCC-366; first compound 0.01 µM): 0.596
relative viability (HCC-366; first compound 0.03162 µM): 0.902
relative viability (HCC-366; first compound 0.3162 µM): 0.56
relative viability (LK-2; first compound 0.01 µM): 0.325
relative viability (LK-2; first compound 0.03162 µM): 0.538
relative viability (LK-2; first compound 0.3162 µM): 0.5
relative viability (LU99A; first compound 0.01 µM): 0.534
relative viability (LU99A; first compound 0.03162 µM): 0.579
relative viability (LU99A; first compound 0.3162 µM): 0.593
relative viability (NCI-H1437; first compound 0.01 µM): 1.07
relative viability (NCI-H1437; first compound 0.03162 µM): 1.18
relative viability (NCI-H1437; first compound 0.3162 µM): 1.28
relative viability (NCI-H1666; first compound 0.01 µM): 0.719
relative viability (NCI-H1666; first compound 0.03162 µM): 0.943
relative viability (NCI-H1666; first compound 0.3162 µM): 0.775
relative viability (NCI-H2009; first compound 0.01 µM): 1.17
relative viability (NCI-H2009; first compound 0.03162 µM): 1.25
relative viability (NCI-H2009; first compound 0.3162 µM): 1.18
relative viability (NCI-H2023; first compound 0.03162 µM): 0.666
relative viability (NCI-H2023; first compound 0.3162 µM): 0.731
relative viability (NCI-H3122; first compound 0.01 µM): 1.01
relative viability (NCI-H3122; first compound 0.03162 µM): 1.01
relative viability (NCI-H3122; first compound 0.3162 µM): 1.06
relative viability (NCI-H441; first compound 0.01 µM): 0.608
relative viability (NCI-H441; first compound 0.03162 µM): 0.622
relative viability (NCI-H441; first compound 0.3162 µM): 0.591
relative viability (NCI-H661; first compound 0.01 µM): 0.531
relative viability (NCI-H661; first compound 0.03162 µM): 0.776
relative viability (NCI-H661; first compound 0.3162 µM): 0.623
relative viability (NCI-H727; first compound 0.01 µM): 0.354
relative viability (NCI-H727; first compound 0.03162 µM): 0.281
relative viability (NCI-H727; first compound 0.3162 µM): 0.277
relative viability (NCI-H838; first compound 0.01 µM): 1.02
relative viability (NCI-H838; first compound 0.03162 µM): 1.23
relative viability (NCI-H838; first compound 0.3162 µM): 0.945
relative viability (PC-14; first compound 0.01 µM): 0.946
relative viability (PC-14; first compound 0.03162 µM): 1.16
relative viability (PC-14; first compound 0.3162 µM): 1.03
